In patent publication US20200181709A1, “METHODS OF DETECTION AND TREATMENT OF UROTHELIAL CANCER” (THE JOHNS HOPKINS UNIVERSITY, priority 2015, published 2020):
“Also recorded” adds a separate entry of the source.

Columns and labels:
[1] = tested on: CCND2 expression in UCC cell lines; assay: Q-RT-PCR of CCND2 expression after 5-aza-dc and/or TSA treatment of UCC cell lines; format: cell-based; conditions: 5 μM 5-aza-dc for 5 days, vs PBS control
Experimental: (§1) UCC cells were seeded in 75 cm2 culture flasks at a density of […] and incubated at 37° C. in 5% CO2/95% air overnight. Cells were then treated with 5μM of 5-aza-dc (Sigma Chemical, Sigma, USA) for 5 days. […] Additionally, combination treatment with 5-aza-dc and TSA was performed by adding 5μM of 5-aza-dc daily for 5 days and TSA (300 nmol/L; Sigma) was added to the medium for the final 24 hours. […] PBS (phosphate buffered saline) alone was used as a control to exclude non-specific solvent effects on cells. All experiments were run independently twice. RNA was extracted using Qiazol Lysis reagent (Qiagen, Valencia, Calif.) according to the manufacturer's instructions. One microgram of total RNA was used for cDNA conversion using the Quantitect Reverse Transcription Kit (Qiagen, Valencia, Calif.), following manufacturer's protocol. Q-RT-PCR was performed using the SYBR Green chemistry in a 7900HT Real-Time PCR System (Applied Biosystems, Foster City, CA). […] The RT-PCR primer sequences are available in Supplementary Table 2B. […] Quantitative reverse transcriptase PCR was performed to determine whether promoter methylation of CCNA1 and CCND2 inversely correlated with their expression. […]

[2] = tested on: CCNA1 expression in UCC cell lines; assay: Q-RT-PCR of CCNA1 expression after 5-aza-dc and/or TSA treatment of UCC cell lines; format: cell-based; conditions: SW780 and J82 cell lines; 5 μM 5-aza-dc for 5 days; vs PBS control
Experimental: as §1

Nc1ncn([C@H]2C[C@H](O)[C@@H](CO)O2)c(=O)n1 [5-aza-dc, 5-aza-deoxycytidine]
CCND2 expression (real-time RT-PCR) ([1]; HT1376 cell line): overexpression was observed after 5-aza-dc treatment only (not significant)
CCND2 expression (real-time RT-PCR) ([1]; UMUC-3, J82 and T24 cell lines): Reactivation of CCND2 was observed
CCNA1 expression (real-time RT-PCR) [2]: re-expression of CCNA1; also recorded: Reactivation of CCNA1 was observed
